How the values were obtained:
Pannexin 1 (PANX1) [1] = biological target: T1, Pannexin 1 (PANX1) (Homo sapiens, UniProt Q96RD7); experiment: whole-cell patch clamp in apoptotic Jurkat cells; type: cell-based
Target sequence in this assay (Q96RD7 whole entry): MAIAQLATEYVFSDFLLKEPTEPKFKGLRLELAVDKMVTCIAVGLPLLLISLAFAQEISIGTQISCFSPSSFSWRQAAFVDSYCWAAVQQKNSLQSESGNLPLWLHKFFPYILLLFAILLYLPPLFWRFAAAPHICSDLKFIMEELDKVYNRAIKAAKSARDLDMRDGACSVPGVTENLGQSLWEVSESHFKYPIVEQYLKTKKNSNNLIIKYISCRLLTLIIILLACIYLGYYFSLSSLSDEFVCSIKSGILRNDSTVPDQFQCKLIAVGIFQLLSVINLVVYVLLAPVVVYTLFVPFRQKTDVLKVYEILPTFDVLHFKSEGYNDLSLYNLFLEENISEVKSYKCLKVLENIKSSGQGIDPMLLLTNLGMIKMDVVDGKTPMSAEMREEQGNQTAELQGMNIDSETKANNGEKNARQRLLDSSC

Pannexin 1 (PANX1) [2] = biological target: T1, Pannexin 1 (PANX1); experiment: whole-cell patch clamp in HEK293T; type: cell-based
Target sequence in this assay (Q96RD7 1-379 limits assumed): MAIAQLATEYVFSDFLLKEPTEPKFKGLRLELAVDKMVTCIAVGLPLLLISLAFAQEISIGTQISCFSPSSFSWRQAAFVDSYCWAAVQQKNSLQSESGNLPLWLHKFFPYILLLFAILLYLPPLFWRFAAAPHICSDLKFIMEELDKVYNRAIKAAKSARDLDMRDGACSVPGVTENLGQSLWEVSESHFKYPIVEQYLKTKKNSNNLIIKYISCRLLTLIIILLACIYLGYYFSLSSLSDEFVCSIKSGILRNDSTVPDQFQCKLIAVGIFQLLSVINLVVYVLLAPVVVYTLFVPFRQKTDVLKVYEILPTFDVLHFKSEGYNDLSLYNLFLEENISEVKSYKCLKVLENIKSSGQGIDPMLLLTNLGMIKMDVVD

| IC50 (Pannexin 1 (PANX1) [2]) | SMILES | whole-cell patch clamp in apoptotic Jurkat cells (Pannexin 1 (PANX1) [1]) |
| --- | --- | --- |
|  | CC1(C)[C@@H](OC(=O)CCC(=O)O)CC[C@]2(C)[C@H]3C(=O)C=C4[C@@H]5C[C@@](C)(C(=O)O)CC[C@]5(C)CC[C@@]4(C)[C@]3(C)CC[C@@H]12 [carbenoxolone] | the current sensitive to spironolactone was fully blocked by carbenoxolone (CBX), a drug known to inhibit PANX1 |
| 8.7 ± 1.5 µM | CC(=O)S[C@@H]1CC2=CC(=O)CC[C@]2(C)[C@H]2CC[C@@]3(C)[C@@H](CC[C@@]34CCC(=O)O4)[C@H]12 [spironolactone] |  |

From publication PMC5815904 (Circulation research, 2017)
